# Measured values taken from US10098870B2 (JENKEM TECHNOLOGY CO., LTD. (BEIJING), priority 2013, dated 2018).
# “Also recorded” adds a separate entry of the source. Read-outs that look alike come from different tables or passages of the source.
# Tests used:
# [1] = Body weight, survival and tolerance of mice bearing plc/prf/5 (Example 6); format: in vivo, nude mouse; conditions: for Body weight of animal: 25 mg/kg i.v. QD×5, mean ± SE
# Source text: Wherein QW×4W represents intravenous injection once a week for 4 weeks, BIW×4W represents intravenous injection […] for 4 weeks, the same below. (2) Experimental Results
# [2] = Body weight, survival and tolerance of mice bearing Hep3B (Example 7); format: in vivo, mouse; conditions: 15 mg/kg i.v. (QD×5)×2W, mean ± SE
# [3] = system: human hepatoma cell plc/prf/5; assay: Anti-tumor effect on xenograft tumor model of plc/prf/5 in nude mice (Example 6); conditions: for Tumor volume: 25 mg/kg i.v. QD×5, mean ± SE
# Source text: 10 days later the mean tumor volume was desired to reach about 161 mm^3, the mice with a smaller or larger tumor were removed and the remaining 24 mice were divided into groups randomly according to tumor volume and administrated.
# Wherein QW×4W represents intravenous injection once a week for 4 weeks, BIW×4W represents intravenous injection once every two weeks for 4 weeks, the same below.
# [4] = system: human hepatoma cell Hep3B; assay: Anti-tumor effect on xenograft tumor model of Hep3B in immune deficiency mice (Example 7); conditions: for Tumor volume: mean ± SE
# [5] = in words; cited from earlier work
# [6] = system: H460 human non-small cell lung cancer cells; conditions: 15 mg/kg i.v. BIW×3W; for Tumor volume: mean ± SE
# Method: (§1) 5.0×10^6 of H460 tumor cells were suspended in 0.1 ml of PBS, inoculated to each nude mouse at the right shoulder, and there were totally 34 mice inoculated. 8 days later the mean tumor volume was desired to reach about 143 mm^3, the mice with a smaller or larger tumor were removed and the remaining 24 mice were divided into groups randomly according to tumor volume and administrated.
# [7] = Body weight, survival and tolerance of mice bearing H460 (Example 8); conditions: 15 mg/kg i.v. BIW×3W; for Body weight of animal: mean ± SE
# Method: as §1
# [8] = Body weight, survival and tolerance of mice bearing A549 (Example 10);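 for all read-outs here: nude mice, each given 1.0×10^7 A549 tumor cells in the right shoulder region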; conditions: 15 mg/kg i.v. BIW×4W; for Body weight of animal: mean ± SE
# Method: (§2) 1.0×10^7 of A549 tumor cells were suspended in 0.1 ml of PBS, inoculated to each nude mouse at the right shoulder, and there were totally 36 mice inoculated.
# [9] = Body weight, survival and tolerance of mice bearing Calu-6 (Example 9);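 for all read-outs here: nude mice bearing Calu-6 tumours, established by implanting 5.0×10^6 cells at the right shoulder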; conditions: 15 mg/kg i.v. BIW×4W; for Body weight of animal: mean ± SE
# Method: (§3) 5.0×10^6 of Calu-6 tumor cells were suspended in 0.1 ml of PBS, inoculated to each nude mouse at the right shoulder, and there were totally 34 mice inoculated.
# [10] = system: A549 human non-small cell lung cancer cells; assay: Anti-tumor effect on xenograft tumor model of A549 in nude mice (Example 10);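 for all read-outs here: nude mice bearing A549 xenografts established by inoculating 1.0×10^7 cells in PBS at the right shoulder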; conditions: 15 mg/kg i.v. BIW×4W; for Tumor volume: mean ± SE
# Method: A549 cells were cultured with a monolayer in vitro in RPMI1640 medium supplied with heat-inactivated fetal bovine serum with a volume ratio of 10%, and an incubator at 37° C. with the air containing CO2 with a proportion of 5%. The tumor cells were passaged with digestion by trypsin-EDTA twice a week. The cells in the exponential growth phase were collected, counted, and used for inoculation.
# as §2
# [11] = system: Calu-6 human lung cancer cell; assay: Anti-tumor effect on xenograft tumor model of Calu-6 in nude mice (Example 9);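 for all read-outs here: each nude mouse received 5.0×10^6 Calu-6 cells implanted at the right shoulder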; conditions: 15 mg/kg i.v. BIW×4W; for Tumor volume: mean ± SE
# Method: Calu-6 cells were cultured with a monolayer in vitro in MEM medium supplied with heat-inactivated fetal bovine serum with a volume ratio of 10%, and an incubator at 37° C. with the air containing CO2 with a proportion of 5%. The tumor cells were passaged with digestion by trypsin-EDTA twice a week. The cells in the exponential growth phase were collected, counted, and used for inoculation.
# as §3
# [12] = acids, bases, physiological conditions; in words; cited from earlier work
# [13] = system: human hepatoma cell plc/prf/5; assay: Anti-tumor effect on subcutaneous transplantation tumor model of plc/prf/5 in NOD/SCID mice (Example 5); format: in vivo, NOD/SCID mouse; conditions: for Tumor volume: 10 mg/kg (counted with rapamycin) i.v. Q2W×2W, mean ± SE
# Method: The tumor cells were passaged with digestion by trypsin-EDTA twice a week. The cells in the exponential growth phase were collected, counted, and used for inoculation.
# 1×10^7 of plc/prf/5 tumor cells were suspended in 0.1 ml of mixed solution (PBS:Matrigel=4:1), inoculated to each NOD/SCID mouse at the right shoulder.
# Wherein Q2W×2W represents intravenous injection […] for 2 weeks, the same below. (2) Experimental Results
# [14] = 5-FU 25 mg/kg, LPR-2 30 and 45 mg/kg
# [15] = 15 mg/kg i.v. (QD×5)×2W, vs physiological saline
# [16] = 44th day, 15 mg/kg i.v. (QD×5)×2W, Mean ± SEM
molecule,measurement,setting,value
"O=c1[nH]cc(F)c(=O)[nH]1 [5-FU, reference compound]",toxicity / tolerance (in words),[1]; [14],so toxic with this dosage that all the animals died; also recorded: a significant toxicity and the whole group of animals died
same,Body weight of animal,[1]; day 10 after inoculation,19.6 ± 0.3 g
same,Body weight of animal,[1]; day 17 after inoculation,14.7 ± 0.5 g
same,Body weight of animal,[2]; day 20 after inoculation,19.4 ± 0.4 g
same,Body weight of animal,[2]; day 23 after inoculation,19.7 ± 0.3 g
same,Body weight of animal,[2]; day 27 after inoculation,18.6 ± 0.3 g
same,Body weight of animal,[2]; day 30 after inoculation,18.1 ± 0.3 g
same,Body weight of animal,[2]; day 34 after inoculation,18.5 ± 0.4 g
same,Body weight of animal,[2]; day 37 after inoculation,18.3 ± 0.3 g
same,Body weight of animal,[2]; day 41 after inoculation,18.1 ± 0.3 g
same,anti-tumor effect (in words),[3]; [14],obvious anti-tumor effect
same,Tumor volume,[3]; day 10 after inoculation,170 ± 16 mm^3
same,Tumor volume,[3]; day 13 after inoculation,118 ± 7 mm^3
same,Tumor volume,[3]; day 17 after inoculation,69 ± 4 mm^3
same,"TGD (to 1,000 mm^3)",[4]; 15 mg/kg i.v. (QD×5)×2W,6
same,T/C (%) RTV,[4]; [15],106%
same,T/C (%) TW,[4]; [15],109%
same,anti-tumor effect (in words),"[4]; 5-FU 15 mg/kg, LPR-2 30 and 45 mg/kg",not significant
same,RTV,[4]; [16],4.53 ± 0.32
same,Tumor weight,[4]; [16],1695 ± 289 mg
same,Tumor volume,"[4]; day 16 after inoculation, 15 mg/kg i.v. (QD×5)×2W",453 ± 66 mm^3
same,Tumor volume,"[4]; day 20 after inoculation, 15 mg/kg i.v. (QD×5)×2W",567 ± 84 mm^3
same,Tumor volume,"[4]; day 23 after inoculation, 15 mg/kg i.v. (QD×5)×2W",667 ± 105 mm^3
same,Tumor volume,"[4]; day 27 after inoculation, 15 mg/kg i.v. (QD×5)×2W",820 ± 149 mm^3
same,Tumor volume,"[4]; day 30 after inoculation, 15 mg/kg i.v. (QD×5)×2W",850 ± 150 mm^3
same,Tumor volume,"[4]; day 34 after inoculation, 15 mg/kg i.v. (QD×5)×2W","1,123 ± 226 mm^3"
same,Tumor volume,"[4]; day 37 after inoculation, 15 mg/kg i.v. (QD×5)×2W","1,500 ± 295 mm^3"
same,Tumor volume,"[4]; day 41 after inoculation, 15 mg/kg i.v. (QD×5)×2W","1,793 ± 342 mm^3"
same,Tumor volume,"[4]; day 44 after inoculation, 15 mg/kg i.v. (QD×5)×2W","2,114 ± 395 mm^3"
"CO[C@H]1C[C@@H]2CC[C@@H](C)[C@@](O)(O2)C(=O)C(=O)N2CCCC[C@H]2C(=O)O[C@H]([C@H](C)C[C@@H]2CC[C@@H](OCCO)[C@H](OC)C2)CC(=O)[C@H](C)/C=C(\C)[C@@H](O)[C@@H](OC)C(=O)[C@H](C)C[C@H](C)/C=C/C=C/C=C/1C [Everolimus, 42-O-(2-hydroxyethyl)-rapamycin]",water-solubility,[5],better water-solubility than that of rapamycin
"CC(=O)O[C@H]1C(=O)[C@@]2(C)[C@H]([C@H](OC(=O)c3ccccc3)[C@]3(O)C[C@H](OC(=O)[C@H](O)[C@@H](NC(=O)c4ccccc4)c4ccccc4)C(C)=C1C3(C)C)[C@]1(OC(C)=O)CO[C@@H]1C[C@@H]2O [Paclitaxel, reference compound]","TGD (to 1,000 mm^3)",[6],7
same,T/C (%) RTV,[6]; vs physiological saline,59%
same,T/C (%) TW,[6]; vs physiological saline,66%
same,RTV,"[6]; 29th day, Mean ± SEM",9.03 ± 0.93
same,Tumor weight,"[6]; 29th day, Mean ± SEM",1053 ± 146 mg
same,Tumor volume,[6]; day 8 after inoculation,143 ± 15 mm^3
same,Tumor volume,[6]; day 12 after inoculation,295 ± 42 mm^3
same,Tumor volume,[6]; day 15 after inoculation,400 ± 70 mm^3
same,Tumor volume,[6]; day 19 after inoculation,519 ± 97 mm^3
same,Tumor volume,[6]; day 22 after inoculation,680 ± 110 mm^3
same,Tumor volume,[6]; day 26 after inoculation,944 ± 117 mm^3
same,Tumor volume,[6]; day 29 after inoculation,"1,281 ± 184 mm^3"
same,"N, number of surviving animals after completion of the treatment",[7]; 6 animals per group,6
same,Body weight of animal,[7]; day 8 after inoculation,20.1 ± 0.4 g
same,Body weight of animal,[7]; day 12 after inoculation,19.9 ± 0.3 g
same,Body weight of animal,[7]; day 15 after inoculation,19.8 ± 0.2 g
same,Body weight of animal,[7]; day 19 after inoculation,19.5 ± 0.2 g
same,Body weight of animal,[7]; day 22 after inoculation,18.6 ± 0.3 g
same,"N, number of surviving animals after completion of the treatment",[8]; 6 animals per group,6
same,Body weight of animal,[8]; day 24 after inoculation,20.6 ± 0.4 g
same,Body weight of animal,[8]; day 28 after inoculation,20.8 ± 0.4 g
same,Body weight of animal,[8]; day 31 after inoculation,20.6 ± 0.4 g
same,Body weight of animal,[8]; day 35 after inoculation,20.8 ± 0.5 g
same,Body weight of animal,[8]; day 38 after inoculation,20.8 ± 0.6 g
same,Body weight of animal,[8]; day 42 after inoculation,21.6 ± 0.6 g
same,Body weight of animal,[8]; day 45 after inoculation,21.3 ± 0.6 g
same,Body weight of animal,[8]; day 49 after inoculation,21.3 ± 0.7 g
same,Body weight of animal,[8]; day 52 after inoculation,21.8 ± 0.6 g
same,"N, number of surviving animals after completion of the treatment",[9]; 6 animals per group,6
same,Body weight of animal,[9]; day 17 after inoculation,20.5 ± 0.2 g
same,Body weight of animal,[9]; day 21 after inoculation,20.5 ± 0.3 g
same,Body weight of animal,[9]; day 24 after inoculation,19.6 ± 0.4 g
same,Body weight of animal,[9]; day 28 after inoculation,19.8 ± 0.4 g
same,Body weight of animal,[9]; day 31 after inoculation,19.7 ± 0.6 g
same,Body weight of animal,[9]; day 35 after inoculation,20.1 ± 0.5 g
same,Body weight of animal,[9]; day 38 after inoculation,20.1 ± 0.4 g
same,"TGD (to 1,000 mm^3)",[10],>7
same,T/C (%) RTV,[10]; vs physiological saline,24%
same,T/C (%) TW,[10]; vs physiological saline,19%
same,RTV,"[10]; 52nd day, Mean ± SEM",2.35 ± 0.16
same,Tumor weight,"[10]; 52nd day, Mean ± SEM",253 ± 52 mg
same,Tumor volume,[10]; day 24 after inoculation,138 ± 13 mm^3
same,Tumor volume,[10]; day 28 after inoculation,196 ± 24 mm^3
same,Tumor volume,[10]; day 31 after inoculation,230 ± 35 mm^3
same,Tumor volume,[10]; day 35 after inoculation,260 ± 49 mm^3
same,Tumor volume,[10]; day 38 after inoculation,265 ± 48 mm^3
same,Tumor volume,[10]; day 42 after inoculation,294 ± 41 mm^3
same,Tumor volume,[10]; day 45 after inoculation,327 ± 54 mm^3
same,Tumor volume,[10]; day 49 after inoculation,342 ± 54 mm^3
same,Tumor volume,[10]; day 52 after inoculation,331 ± 49 mm^3
same,"TGD (to 1,000 mm^3)",[11],>8
same,T/C (%) RTV,[11]; vs physiological saline,16%
same,T/C (%) TW,[11]; vs physiological saline,13%
same,RTV,"[11]; 42nd day, Mean ± SEM",2.31 ± 0.53
same,Tumor weight,"[11]; 42nd day, Mean ± SEM",202 ± 52 mg
same,Tumor volume,[11]; day 14 after inoculation,138 ± 14 mm^3
same,Tumor volume,[11]; day 17 after inoculation,159 ± 18 mm^3
same,Tumor volume,[11]; day 21 after inoculation,222 ± 23 mm^3
same,Tumor volume,[11]; day 24 after inoculation,219 ± 26 mm^3
same,Tumor volume,[11]; day 28 after inoculation,229 ± 37 mm^3
same,Tumor volume,[11]; day 31 after inoculation,264 ± 53 mm^3
same,Tumor volume,[11]; day 35 after inoculation,281 ± 59 mm^3
same,Tumor volume,[11]; day 38 after inoculation,282 ± 60 mm^3
same,Tumor volume,[11]; day 42 after inoculation,314 ± 72 mm^3
CO[C@H]1C[C@@H]2CC[C@@H](C)[C@@](O)(O2)C(=O)C(=O)N2CCCC[C@H]2C(=O)O[C@H]([C@H](C)C[C@@H]2CC[C@@H](O)[C@H](OC)C2)CC(=O)[C@H](C)/C=C(\C)[C@@H](O)[C@@H](OC)C(=O)[C@H](C)C[C@H](C)/C=C/C=C/C=C/1C [Rapamycin],stability,[12],degraded even under physiological conditions
Y-type polyethylene glycol (40K)-glutamic acid dipeptide-rapamycin conjugate [LPR-3],anti-tumor effect (in words),"[13]; 10 mg/kg counted with rapamycin, i.v. Q2W×2W",stronger antitumor activity than that of polyethylene glycol-rapamycin (LPR-1); also recorded: a certain anti-tumor effect
same,Days for delaying tumor growth (to 1000 mm^3),[13]; 10 mg/kg i.v. Q2W×2W,>7 days
same,Tumor control rate T/C (%),"[13]; 10 mg/kg i.v. Q2W×2W, day 38, vs vehicle control",47%
same,Tumor volume,[13]; day 24 after inoculation,358 ± 62 mm^3
same,Tumor volume,[13]; day 27 after inoculation,455 ± 85 mm^3
same,Tumor volume,[13]; day 31 after inoculation,569 ± 100 mm^3
same,Tumor volume,[13]; day 34 after inoculation,754 ± 151 mm^3
same,Tumor volume,[13]; day 38 after inoculation,848 ± 178 mm^3
